Data from ChEMBL document CHEMBL1201862, “PubChem BioAssay data set” (2004).
Activity calls are given as the source filed them.

What was measured:
[1] = target: T1, DNA repair protein RAD52 homolog (Homo sapiens, UniProt P43351); type: functional, biochemical
T1 sequence (P43351 whole entry): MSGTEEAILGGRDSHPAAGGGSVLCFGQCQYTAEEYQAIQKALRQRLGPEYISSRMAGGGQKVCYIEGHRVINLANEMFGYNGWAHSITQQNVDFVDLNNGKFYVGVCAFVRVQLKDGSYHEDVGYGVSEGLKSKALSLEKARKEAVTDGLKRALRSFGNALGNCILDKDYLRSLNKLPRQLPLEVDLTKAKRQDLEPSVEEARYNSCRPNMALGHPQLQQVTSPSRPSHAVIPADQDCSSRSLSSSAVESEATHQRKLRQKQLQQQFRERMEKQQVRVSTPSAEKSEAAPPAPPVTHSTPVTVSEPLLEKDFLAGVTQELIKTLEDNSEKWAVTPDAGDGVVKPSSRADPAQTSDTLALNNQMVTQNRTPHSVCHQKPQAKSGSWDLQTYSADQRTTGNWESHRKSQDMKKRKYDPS

[2] = microbe, parasite or virus in culture; type: functional; details: Mycobacterium tuberculosis
[3] = target: T2, Ubiquitin-conjugating enzyme E2 N (Homo sapiens, UniProt P61088); type: functional;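 also: Dose-response confirmation in a TR-FRET assay detecting UBC13-driven polyubiquitin chain formation, inhibition measured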
T2 sequence (P61088 whole entry): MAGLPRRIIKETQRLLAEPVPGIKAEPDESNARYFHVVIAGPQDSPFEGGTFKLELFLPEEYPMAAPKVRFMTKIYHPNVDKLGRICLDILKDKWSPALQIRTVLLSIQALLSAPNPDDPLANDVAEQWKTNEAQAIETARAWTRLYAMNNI

[4] = target: T3, Replicative DNA helicase DnaB (Mycobacterium tuberculosis, UniProt P9WMR3); assay: DnaB intein splicing inhibitors, dose response, biochemical, cell-free fluorescence (AID 449749); type: functional
T3 sequence (P9WMR3 whole entry): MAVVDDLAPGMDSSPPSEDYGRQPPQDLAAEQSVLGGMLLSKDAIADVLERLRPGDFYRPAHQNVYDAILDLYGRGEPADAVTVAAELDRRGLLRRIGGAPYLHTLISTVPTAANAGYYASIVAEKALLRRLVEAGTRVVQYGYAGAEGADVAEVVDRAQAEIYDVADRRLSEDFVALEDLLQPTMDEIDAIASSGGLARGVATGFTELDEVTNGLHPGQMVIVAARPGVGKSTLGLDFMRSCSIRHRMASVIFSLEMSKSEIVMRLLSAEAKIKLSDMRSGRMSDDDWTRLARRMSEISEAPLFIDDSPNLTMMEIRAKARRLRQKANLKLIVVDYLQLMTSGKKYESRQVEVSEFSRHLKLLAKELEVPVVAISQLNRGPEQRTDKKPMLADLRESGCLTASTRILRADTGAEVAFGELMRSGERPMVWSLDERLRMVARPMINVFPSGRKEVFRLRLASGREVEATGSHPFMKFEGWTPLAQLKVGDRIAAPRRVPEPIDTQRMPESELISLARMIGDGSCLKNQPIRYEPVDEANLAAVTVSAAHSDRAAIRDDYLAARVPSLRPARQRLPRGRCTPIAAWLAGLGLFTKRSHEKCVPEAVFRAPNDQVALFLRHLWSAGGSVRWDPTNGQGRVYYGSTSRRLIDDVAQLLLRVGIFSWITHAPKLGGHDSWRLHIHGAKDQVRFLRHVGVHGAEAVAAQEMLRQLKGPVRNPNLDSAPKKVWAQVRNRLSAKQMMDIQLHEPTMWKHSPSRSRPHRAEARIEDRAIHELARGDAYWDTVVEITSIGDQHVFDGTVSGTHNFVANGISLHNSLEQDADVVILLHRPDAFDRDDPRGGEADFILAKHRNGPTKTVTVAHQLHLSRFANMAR

Protein RecA = target: T4, Protein RecA (Mycobacterium tuberculosis, UniProt P9WHJ3); assay: Fluorescence Cell-Free Homogeneous Dose Retest to Identify Inhibitors of RecA-Intein Splicing Activity. [Related pubchem assays (depositor defined):AID2097, AID2223, AID489010, AID492950]; type: functional
T4 sequence (P9WHJ3 whole entry): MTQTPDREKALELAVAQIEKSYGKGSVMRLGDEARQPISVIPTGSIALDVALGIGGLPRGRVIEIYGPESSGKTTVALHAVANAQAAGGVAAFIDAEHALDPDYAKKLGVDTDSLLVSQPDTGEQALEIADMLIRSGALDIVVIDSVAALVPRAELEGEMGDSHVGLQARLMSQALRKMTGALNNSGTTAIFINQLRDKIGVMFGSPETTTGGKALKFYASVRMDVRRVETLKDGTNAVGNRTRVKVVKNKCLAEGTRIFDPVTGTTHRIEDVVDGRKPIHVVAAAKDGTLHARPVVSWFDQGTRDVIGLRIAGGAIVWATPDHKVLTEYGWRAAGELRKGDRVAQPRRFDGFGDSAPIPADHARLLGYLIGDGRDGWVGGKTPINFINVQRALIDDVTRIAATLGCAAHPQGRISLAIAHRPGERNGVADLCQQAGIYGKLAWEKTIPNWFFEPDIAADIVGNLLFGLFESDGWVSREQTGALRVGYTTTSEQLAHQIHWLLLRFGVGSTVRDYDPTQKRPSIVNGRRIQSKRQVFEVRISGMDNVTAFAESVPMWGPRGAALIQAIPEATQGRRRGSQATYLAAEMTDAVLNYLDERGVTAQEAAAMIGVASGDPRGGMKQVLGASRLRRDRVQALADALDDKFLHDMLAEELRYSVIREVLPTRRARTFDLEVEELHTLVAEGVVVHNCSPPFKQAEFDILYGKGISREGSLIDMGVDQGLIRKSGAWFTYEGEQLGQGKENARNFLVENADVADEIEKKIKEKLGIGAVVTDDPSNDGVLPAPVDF

[5] = inhibitors of HIV Env-driven cell fusion, dose response, cherry-pick (AID 652057); type: functional, cell-based
[6] = inhibitors of firefly luciferase expression or activity, dose response, H4 neuroglioma cells, luminescence (AID 1990); type: functional, cell-based
[7] = Luminescence Cell-Based Dose Response HTS to Identify Inhibitors of 5'UTR Stem-Loop Driven Prion Protein mRNA Translation in H4 Neuroglioblastoma Cells. [Related pubchem assays: 1827 (Project Summary), 1813 (Primary HTS)]; type: functional
[8] = inhibitors of SNCA 5'UTR-driven reporter translation, confirmation, H4 neuroglioma cells, luminescence (AID 1988); type: functional, cell-based
[9] = THP-1 cell cytotoxicity, dose response, cytotoxicity control for non-replicating M. tuberculosis project (AID 489025); type: functional
[10] = HepG2 cell cytotoxicity, dose response, cytotoxicity control for non-replicating M. tuberculosis project (AID 489018); type: functional; details: Mycobacterium tuberculosis
[11] = Vero E6 cell cytotoxicity, dose response, cytotoxicity control for non-replicating M. tuberculosis project, secondary assay (AID 492998); type: functional, VeroE6; details: Vero C1008
cells = type: functional
[12] = growth suppression of PTEN-null colon cells, dose response, cell-based, HCT116 PTEN knockout (AID 1047); type: functional;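 also: HCT116 colon tumor cells with PTEN knocked out; cells exposed to compound for 60 hours before readout; potency for loss of cell viability measured by luminescence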
[13] = growth suppression of beta-catenin-knockout colon cells, dose response, cell-based, HCT116, human colon tumor (AID 1045); type: functional;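 also: HCT116 colon tumor cells with beta catenin knocked out; cells exposed to compound for 60 hours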
INS1 = assay: beta cell apoptosis inhibitors, cytokine rescue, dose response, luminescence, retest (AID 449756); type: functional, cell-based; details: Rattus norvegicus;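 also: cell death triggered by IL-1 beta plus TNF-alpha plus IFN-gamma mixture; protective hits raise ATP signal compared with cytokine alone wells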
[14] = target: Voltage-dependent T-type calcium channel subunit alpha-1H (Homo sapiens, UniProt O95180); type: functional;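 also: channel activity triggered by adding a high calcium stimulation buffer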
[15] = cytotoxicity in HEK-293T cells, dose response, cytotoxicity control for BCR NF-kB inhibitor project, luminescence, B-cell screen hits (AID 489021); type: functional, cell-based;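 also: HEK-293T cells carrying an NF-kB luciferase reporter; cells exposed to compound for about 14 hours before viability readout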
[16] = inhibitors of intracellular T. cruzi replication, confirmation, NIH3T3 host cells, beta-gal luminescence (AID 2044); type: functional, cell-based;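 also: intracellular parasites grown in NIH/3T3 mouse fibroblasts as host cells; luminescent beta-galactosidase reporter signal from transgenic T. cruzi replicating inside host cells; inhibitors lower the luminescence signal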
[17] = cytotoxicity toward NIH3T3 fibroblasts, dose response, counter-screen, cell-based, ATP luminescence, mouse fibroblasts (AID 2010); type: functional; details: NIH3T3;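 also: cells exposed to compound for about 90 hours before reading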
Vero = assay: cells; type: functional; details: Chlorocebus sabaeus

Voltage-dependent T-type calcium channel subunit alpha-1H, sequence (O95180 whole entry): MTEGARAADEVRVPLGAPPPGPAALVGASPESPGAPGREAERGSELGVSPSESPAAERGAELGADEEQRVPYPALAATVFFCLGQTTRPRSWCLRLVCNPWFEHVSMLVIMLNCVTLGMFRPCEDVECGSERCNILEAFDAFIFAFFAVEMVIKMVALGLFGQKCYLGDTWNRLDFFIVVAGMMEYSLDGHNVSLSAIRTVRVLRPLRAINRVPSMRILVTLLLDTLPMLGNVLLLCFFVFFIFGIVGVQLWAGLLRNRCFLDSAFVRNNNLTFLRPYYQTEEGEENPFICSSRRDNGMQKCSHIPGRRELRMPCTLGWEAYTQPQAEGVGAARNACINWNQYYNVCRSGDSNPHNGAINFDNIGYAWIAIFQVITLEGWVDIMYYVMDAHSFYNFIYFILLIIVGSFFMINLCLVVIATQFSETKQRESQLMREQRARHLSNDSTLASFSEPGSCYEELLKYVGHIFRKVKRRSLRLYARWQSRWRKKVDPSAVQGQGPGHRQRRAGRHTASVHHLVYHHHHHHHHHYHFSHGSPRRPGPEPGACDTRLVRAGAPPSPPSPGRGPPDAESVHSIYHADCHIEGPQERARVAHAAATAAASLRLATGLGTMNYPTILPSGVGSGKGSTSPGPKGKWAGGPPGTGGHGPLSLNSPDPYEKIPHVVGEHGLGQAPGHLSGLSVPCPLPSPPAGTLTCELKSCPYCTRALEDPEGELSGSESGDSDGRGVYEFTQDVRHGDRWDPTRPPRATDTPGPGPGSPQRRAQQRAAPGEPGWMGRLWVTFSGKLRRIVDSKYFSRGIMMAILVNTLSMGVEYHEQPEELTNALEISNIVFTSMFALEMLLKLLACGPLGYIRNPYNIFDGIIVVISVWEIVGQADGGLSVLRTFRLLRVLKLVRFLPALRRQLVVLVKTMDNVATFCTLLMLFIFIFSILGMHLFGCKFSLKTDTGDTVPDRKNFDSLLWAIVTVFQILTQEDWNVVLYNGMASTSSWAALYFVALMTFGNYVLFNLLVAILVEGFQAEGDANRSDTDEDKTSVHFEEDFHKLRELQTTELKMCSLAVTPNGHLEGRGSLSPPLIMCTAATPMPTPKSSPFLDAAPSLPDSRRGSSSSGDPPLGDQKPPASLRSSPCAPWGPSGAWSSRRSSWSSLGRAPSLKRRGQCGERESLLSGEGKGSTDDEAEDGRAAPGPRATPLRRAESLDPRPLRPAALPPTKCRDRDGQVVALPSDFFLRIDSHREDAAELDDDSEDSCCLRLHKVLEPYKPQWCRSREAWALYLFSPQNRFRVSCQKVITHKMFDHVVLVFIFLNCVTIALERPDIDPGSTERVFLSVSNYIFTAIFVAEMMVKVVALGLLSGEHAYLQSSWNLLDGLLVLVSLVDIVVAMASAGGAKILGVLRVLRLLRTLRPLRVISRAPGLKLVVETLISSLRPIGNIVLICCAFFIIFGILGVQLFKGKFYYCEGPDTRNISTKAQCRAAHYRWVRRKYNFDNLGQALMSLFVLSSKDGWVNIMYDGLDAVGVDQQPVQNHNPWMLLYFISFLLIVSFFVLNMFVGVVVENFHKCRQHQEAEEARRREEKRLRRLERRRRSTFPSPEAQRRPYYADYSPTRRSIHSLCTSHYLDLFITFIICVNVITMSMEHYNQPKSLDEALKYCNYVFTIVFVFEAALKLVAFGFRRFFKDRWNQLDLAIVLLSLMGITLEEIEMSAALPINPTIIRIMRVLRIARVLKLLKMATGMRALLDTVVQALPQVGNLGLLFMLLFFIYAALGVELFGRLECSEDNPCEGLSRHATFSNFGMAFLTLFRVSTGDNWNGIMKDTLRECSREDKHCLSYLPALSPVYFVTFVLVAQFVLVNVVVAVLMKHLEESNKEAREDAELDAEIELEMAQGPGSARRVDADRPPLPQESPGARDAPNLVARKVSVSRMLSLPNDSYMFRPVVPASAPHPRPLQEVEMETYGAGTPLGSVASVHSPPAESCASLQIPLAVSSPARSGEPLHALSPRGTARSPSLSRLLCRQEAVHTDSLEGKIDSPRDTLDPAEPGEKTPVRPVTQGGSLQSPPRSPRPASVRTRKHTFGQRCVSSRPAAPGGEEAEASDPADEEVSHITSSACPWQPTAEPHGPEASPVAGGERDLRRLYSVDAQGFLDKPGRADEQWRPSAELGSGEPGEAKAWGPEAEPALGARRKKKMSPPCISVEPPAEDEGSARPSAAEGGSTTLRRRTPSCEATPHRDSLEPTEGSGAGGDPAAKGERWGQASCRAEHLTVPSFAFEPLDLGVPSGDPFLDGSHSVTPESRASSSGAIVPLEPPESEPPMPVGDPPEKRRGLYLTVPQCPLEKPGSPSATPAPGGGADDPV

CN(C)CCCOc1ccc(-c2cc3nc(NCc4cccnc4)n(C)c(=O)c3s2)cn1
AC50 [1]: 11.2 µM (active)

FC(F)(F)c1cc(CO[C@@H]2CCCN[C@@H]2c2ccccc2)cc(C(F)(F)F)c1
CC50 [2]: 24.2 µM (active)
IC50 [3]: > 20 µM (inactive)

CCN(CCN(C)C)C(=O)c1ccc2c(c1NCCO)C(=O)c1ccccc1C2=O
AC50 [4]: 47.1 nM (active)
EC50 (Protein RecA): < 18 nM (active)
AC50 [1]: 6.06 µM (active)

CCC(=O)N(C)C[C@H]1Oc2cc(/C=C/c3ccccc3)ccc2S(=O)(=O)N([C@@H](C)CO)C[C@H]1C
AC50 [5]: 20.7 µM (active)

CCC(=O)Nc1nc2ccccc2n1Cc1ccc(C)cc1
EC50 [6]: 15.1 µM (active)
EC50 [7]: 11.8 µM (active)
EC50 [8]: 8.69 µM (active)
CC50 [9]: > 40 µM (active)
CC50 [10]: > 20 µM (active)
CC50 [11]: 16.1 µM (active)
IC50 (cells): 0.7 µM (active)

CC(=O)Oc1c(C)cc(Cl)cc1C(=O)Nc1ccc([N+](=O)[O-])cc1Cl
CC50 [2]: 1.54 µM (active)
EC50 [12]: 1.99 µM (active)
EC50 [13]: 2.16 µM (active)
CC50 [9]: 5.03 µM (active)
CC50 [10]: 7.96 µM (active)
CC50 [11]: 3.96 µM (active)
IC50 (cells): 9.46 µM (active)
AC50 (INS1): 1.37 µM (active)

O=C(Nc1nc2ccccc2s1)C1CC(=O)N(c2ccccc2)C1 (centres undefined)
EC50 [14]: 8.11 µM (active)

COc1ccc(NC(=O)c2nnn(Cc3cccc(F)c3)c2N)c(OC)c1
IC50 [15]: > 80 µM (inactive)

COc1ccccc1OCC(=O)N(Cc1nc(-c2ccccc2)no1)C1CCCCC1
EC50 [14]: 5.55 µM (active)

CC/C(NCc1ccc2c(c1)OCO2)=C1/C(=O)NC(=O)N(C2CCCCC2)C1=O
EC50 [14]: 5.15 µM (active)

COc1ccc(C(=O)Nc2ccccc2C(=O)NCc2ccco2)cc1OC
IC50 [15]: > 80 µM (inactive)

Cc1c(C(=O)NCC2COc3ccccc3O2)oc2ccc(S(=O)(=O)N(C)C3CCCCC3)cc12 (centres undefined)
EC50 [16]: 1.89 µM (active)
EC50 [17]: > 60 µM (not active)
EC50 [14]: 5.64 µM (active)

CSc1ccc(C(=O)/C=C/c2ccc(N)cc2)cc1
CC50 (Vero): 18.7 µM (active)

CCN(CC)CCNc1ncnc2c1sc1nc(N3CCOCC3)c3c(c12)CCCC3
IC50 [3]: > 20 µM (inactive)
AC50 [1]: 4.88 µM (active)

C=CCOc1ccc(C2C(C#N)=C(N)N(Nc3ccccc3)C3=C2C(=O)CC(C)(C)C3)cc1OC (centres undefined)
CC50 [2]: 35.8 µM (active)
